Laboratory results from patent US20060135613A1, “Carboxamides derivatives” (Bayer Healthcare AG, priority 2002, published 2006).

Tests used:
[1] = target: T1, IP receptor (Homo sapiens, UniProt P43119); assay: Iloprost-induced cAMP production assay in HEL cells (Assay 2); format: cell-based; details: IP receptor antagonist assay, compounds of about 40 to 90% purity, read-out: Activity grade assay 2
T1 construct: HEL cells were collected with centrifugation and washed with cAMP assay buffer; endogenous in cells; host or cells: HEL 92.1.7 (human erythroleukemia, ATCC)
Method: [Iloprost-Induced cAMP Production Assay in HEL Cells] (Assay 2)
HEL cells were collected with centrifugation and washed with cAMP assay buffer (CAB: Hank's balanced salt solution, 17 mM Hepes, 0.1% bovine serum albumin, 1 mM IBMX, 0.4% DMSO, and 1 mM L-ascorbic acid sodium salt (pH 7.4)). Cells were suspended at the density of 2.5×10^5 cells/ml in CAB, and twenty thousand cells in 80 μl aliquot of cell suspension were put in a well of 96 well plate (Falcon). Then, 10 μl of compound solution diluted with 1% DMSO in CAB or buffer alone was added. The plate was incubated at 37° C. for 30 min. Then, another 10 μl containing 100 nM iloprost in CAB or buffer alone was added and further incubated at 37° C. for 30 min. cAMP content in the well was measured by a cAMP ELISA kit (Applied Biosystems).

T1 sequence (P43119 whole entry): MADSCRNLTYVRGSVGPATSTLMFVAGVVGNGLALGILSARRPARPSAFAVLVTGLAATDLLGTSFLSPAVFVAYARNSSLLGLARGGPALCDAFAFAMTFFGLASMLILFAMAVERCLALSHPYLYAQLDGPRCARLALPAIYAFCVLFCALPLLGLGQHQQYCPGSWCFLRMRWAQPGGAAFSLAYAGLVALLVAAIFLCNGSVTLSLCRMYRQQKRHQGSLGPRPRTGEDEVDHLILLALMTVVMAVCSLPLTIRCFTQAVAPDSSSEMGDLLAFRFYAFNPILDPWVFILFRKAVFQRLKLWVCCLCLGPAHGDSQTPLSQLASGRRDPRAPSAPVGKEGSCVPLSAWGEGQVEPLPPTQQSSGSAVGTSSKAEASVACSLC

| SMILES | melting point [°C] | IC50 [1] [nM] |
| --- | --- | --- |
| O=C(/C=C/c1ccc(COc2ccccc2)cc1)NC(Cc1ccccc1)C(=O)O (centres unmarked) [Example 1, N-(4-phenoxymethylcinnamoyl)phenylalanine] | 205 | < 100 |
| O=C(CCc1ccc(COc2ccccc2)cc1)N[C@@H](Cc1ccccc1)C(=O)O [Example 2, N-[3-(4-Phenoxymethylphenyl)propionyl]phenylalanine] | 173 to 174 | < 100 |
| O=C(C#Cc1ccc(COc2ccccc2)cc1)N[C@@H](Cc1ccccc1)C(=O)O [Example 3, N-(4-Phenoxymethylphenylpropioloyl)phenylalanine] | 146 | < 100 |
| O=C(/C=C/c1ccc(OCc2ccccc2)cc1)NC(Cc1ccccc1)C(=O)O (centres unmarked) [Example 4, N-(4-Benzyloxycinnamoyl)phenylalanine] | 220 | < 100 |
